Experimental data taken from patent publication US8192962B2, “Processes for detecting toxic substances” (Daikin Industries, Ltd., priority 2001, dated 2012).

System: Unknown protein yeast genes
Test: DNA chip mRNA expression in yeast, unknown protein yeast genes (Table 1)
Assay type: cell-based, Saccharomyces cerevisiae S288C
Procedure: Yeast (Saccharomyces cerevisiae S288C (α SUC2mal mel gap2 CUP1)) were incubated at 25° C. on YPD medium (yeast extract 1%, polypepton 2%, glucose 2%). One of toxic chemical substances was added to the cells at logarithmic growth phase, and the cells were further incubated for two hours. Cells were cultured without any chemical substance in the same condition, and were used as control. Concentrations of the chemical substances were defined to inhibit the growth of the yeast but not lead to death.
After completion of the incubation, the culture was centrifuged to collect the cells. To the cells, sodium acetate buffer (50 mM sodium acetate, 10 mM EDTA, 1% SDS) was added, and the mixture was shaken at 65° C. for five minutes, followed by returning to room temperature, and obtaining the supernatant, of which the procedures were repeated two times. To the supernatant, ½ amount of a solution of phenol/chloroform was added, and the mixture was centrifuged to give a supernatant, which was added with an equal amount of chloroform, and the mixture was centrifuged to give a supernatant. To the supernatant, an equal amount of isopropanol containing 0.3 M sodium acetate was added, and the mixture was allowed to stand at room temperature for 30 minutes, after which the mixture was centrifuged to give a sediment of the whole RNAs. Seventy % ethanol was added to the sediment, and the mixture was again centrifuged to give a sediment, which was then dried and dissolved in water. mRNA was isolated from the whole RNAs as followings. In view of the fact that a poly A chain is attached to the 3′ terminus of mRNA, a polynucleotide having a poly T structure which was immobilized on the surface of latex beads was used to trap the mRNA, and then the mRNA was washed and eluted with spine column (Oligotex-dT30<Super>mRNA Purification Kit, Takara). Reverse transcription of the mRNA was conducted with a reverse transcriptase (Super Script II Reverse Transcriptase; catalogue No. 18064-014, GibcoBRL) using fluorescence-labeled nucleotides to give cDNAs that were introduced with Cy3-dUTP or Cy5-dUTP during the reverse transcription.
The labeled cDNAs were dissolved in TE buffer (10mM Tris-HCl/1 mM EDTA, pH8.0), and the solution was dropped on the DNA chip containing the whole genes of yeast (DNA Chip Research Inc. Japan) so that the cDNAs were hybridized on the DNA chip at 65° C. for over 12 hours. The fluoresces intensity of the DNA chip was read with a scanner, and the ratio relative to the fluorescence intensity resulting from the absence of chemical substance was estimated as the following, which is shown in Tables 1 to 9: […]

C[S+](C)[O-] [(15), dimethylsulfoxide]
The level of expressed mRNA in the presence of chemical substance/The level of expressed mRNA in the absence of chemical substance (yeast gene YLR008C): 0.7
The level of expressed mRNA in the presence of chemical substance/The level of expressed mRNA in the absence of chemical substance (yeast gene YLR226W): 1.3
The level of expressed mRNA in the presence of chemical substance/The level of expressed mRNA in the absence of chemical substance (yeast gene YLR297W): 0.7
The level of expressed mRNA in the presence of chemical substance/The level of expressed mRNA in the absence of chemical substance (yeast gene YLR311C, incubated two hours with substance): 0.5
The level of expressed mRNA in the presence of chemical substance/The level of expressed mRNA in the absence of chemical substance (yeast gene YLR346C): 1.0
The level of expressed mRNA in the presence of chemical substance/The level of expressed mRNA in the absence of chemical substance (yeast gene YLR392C): 0.5
The level of expressed mRNA in the presence of chemical substance/The level of expressed mRNA in the absence of chemical substance (yeast gene YLR415C): 1.0
The level of expressed mRNA in the presence of chemical substance/The level of expressed mRNA in the absence of chemical substance (yeast gene YLR427W): 0.8
The level of expressed mRNA in the presence of chemical substance/The level of expressed mRNA in the absence of chemical substance (yeast gene YLR460C): 0.7
The level of expressed mRNA in the presence of chemical substance/The level of expressed mRNA in the absence of chemical substance (yeast gene YML013W): 2.2
The level of expressed mRNA in the presence of chemical substance/The level of expressed mRNA in the absence of chemical substance (yeast gene YML029W): 0.8
The level of expressed mRNA in the presence of chemical substance/The level of expressed mRNA in the absence of chemical substance (yeast gene YML041C): 1.0
The level of expressed mRNA in the presence of chemical substance/The level of expressed mRNA in the absence of chemical substance (yeast gene YML079W): 0.3
The level of expressed mRNA in the presence of chemical substance/The level of expressed mRNA in the absence of chemical substance (yeast gene YMR041C, incubated two hours with substance): 0.5
The level of expressed mRNA in the presence of chemical substance/The level of expressed mRNA in the absence of chemical substance (yeast gene YMR068W): 2.2
The level of expressed mRNA in the presence of chemical substance/The level of expressed mRNA in the absence of chemical substance (yeast gene YMR090W): 1.9
The level of expressed mRNA in the presence of chemical substance/The level of expressed mRNA in the absence of chemical substance (yeast gene YMR160W): 1.5
The level of expressed mRNA in the presence of chemical substance/The level of expressed mRNA in the absence of chemical substance (yeast gene YMR315W): 2.5
The level of expressed mRNA in the presence of chemical substance/The level of expressed mRNA in the absence of chemical substance (yeast gene YNL026W): 0.8
The level of expressed mRNA in the presence of chemical substance/The level of expressed mRNA in the absence of chemical substance (yeast gene YNL058C): 2.2
The level of expressed mRNA in the presence of chemical substance/The level of expressed mRNA in the absence of chemical substance (yeast gene YNL063W): 0.7
The level of expressed mRNA in the presence of chemical substance/The level of expressed mRNA in the absence of chemical substance (yeast gene YNL176C): 0.8
The level of expressed mRNA in the presence of chemical substance/The level of expressed mRNA in the absence of chemical substance (yeast gene YNL194C): 0.5
The level of expressed mRNA in the presence of chemical substance/The level of expressed mRNA in the absence of chemical substance (yeast gene YNL200C): 0.8
The level of expressed mRNA in the presence of chemical substance/The level of expressed mRNA in the absence of chemical substance (yeast gene YNL211C): 0.8
The level of expressed mRNA in the presence of chemical substance/The level of expressed mRNA in the absence of chemical substance (yeast gene YNL253W): 0.5
The level of expressed mRNA in the presence of chemical substance/The level of expressed mRNA in the absence of chemical substance (yeast gene YNR051C): 1.2
The level of expressed mRNA in the presence of chemical substance/The level of expressed mRNA in the absence of chemical substance (yeast gene YOL026C): 0.9
The level of expressed mRNA in the presence of chemical substance/The level of expressed mRNA in the absence of chemical substance (yeast gene YOL031C): 4.4
The level of expressed mRNA in the presence of chemical substance/The level of expressed mRNA in the absence of chemical substance (yeast gene YOL101C): 0.6
The level of expressed mRNA in the presence of chemical substance/The level of expressed mRNA in the absence of chemical substance (yeast gene YOL150C): 1.8
The level of expressed mRNA in the presence of chemical substance/The level of expressed mRNA in the absence of chemical substance (yeast gene YOR022C): 0.8
The level of expressed mRNA in the presence of chemical substance/The level of expressed mRNA in the absence of chemical substance (yeast gene YOR049C): 1.3
The level of expressed mRNA in the presence of chemical substance/The level of expressed mRNA in the absence of chemical substance (yeast gene YOR087W): 0.8
The level of expressed mRNA in the presence of chemical substance/The level of expressed mRNA in the absence of chemical substance (yeast gene YOR138C): 1.0
The level of expressed mRNA in the presence of chemical substance/The level of expressed mRNA in the absence of chemical substance (yeast gene YOR248W, incubated two hours with chemical substance): 8.8
The level of expressed mRNA in the presence of chemical substance/The level of expressed mRNA in the absence of chemical substance (yeast gene YOR253W): 1.1
The level of expressed mRNA in the presence of chemical substance/The level of expressed mRNA in the absence of chemical substance (yeast gene YOR267C): 1.3
The level of expressed mRNA in the presence of chemical substance/The level of expressed mRNA in the absence of chemical substance (yeast gene YOR338W): 1.8
The level of expressed mRNA in the presence of chemical substance/The level of expressed mRNA in the absence of chemical substance (yeast gene YPL005W): 1.2
The level of expressed mRNA in the presence of chemical substance/The level of expressed mRNA in the absence of chemical substance (yeast gene YPL150W): 1.1
The level of expressed mRNA in the presence of chemical substance/The level of expressed mRNA in the absence of chemical substance (yeast gene YPL152W): 2.3
The level of expressed mRNA in the presence of chemical substance/The level of expressed mRNA in the absence of chemical substance (yeast gene YPL168W): 0.8
The level of expressed mRNA in the presence of chemical substance/The level of expressed mRNA in the absence of chemical substance (yeast gene YPL180W): 0.7
The level of expressed mRNA in the presence of chemical substance/The level of expressed mRNA in the absence of chemical substance (yeast gene YPL188W): 0.8
The level of expressed mRNA in the presence of chemical substance/The level of expressed mRNA in the absence of chemical substance (yeast gene YPL221W): 1.0
The level of expressed mRNA in the presence of chemical substance/The level of expressed mRNA in the absence of chemical substance (yeast gene YPL280W): 4.3
The level of expressed mRNA in the presence of chemical substance/The level of expressed mRNA in the absence of chemical substance (yeast gene YPR049C): 1.5
The level of expressed mRNA in the presence of chemical substance/The level of expressed mRNA in the absence of chemical substance (yeast gene YPR077C, cells incubated two hours with the chemical substance): 2.9
The level of expressed mRNA in the presence of chemical substance/The level of expressed mRNA in the absence of chemical substance (yeast gene YPR148C): 1.7
The level of expressed mRNA in the presence of chemical substance/The level of expressed mRNA in the absence of chemical substance (yeast gene YPR172W): 1.5
